Test: Functional Dkk1-LRP5-TCF-Luciferase Assay in U2OS Cells (table columns: A=MAX FOLD Induction/DMSO CONTROL; B=fold induction @ 2.0 uM; C=fold induction @ 20.0 uM)
Assay type: cell-based, Human
Conditions: Homo sapiens, U2OS; for fold induction at 2 µM: 2.0 uM compound; for fold induction at 20 µM: 20.0 uM compound
Description: Biological Evaluation—Functional Dkk1-LRP5-TCF-Luciferase Assay in U2OS Cells
U2OS Human Bone derived cells (Osteosarcoma) are grown in McCoy's 5A Medium (Modified), with L-glutamine (GIBCO Cat No. 16600-082)+1% Pen-Strep+5% FBS) plated at 1×10^7 cells/T175 cm flask. The next day, the cells are co-transfected overnight with the following plasmids: (a) Test reporter (16×TCF-TK-FireFly-Luci), (b) Internal Control Reporter (TK-Renilla-Luci), (c) Wnt3a and (d) Dkk1. GIBCO's Lipofectamine 2000 and OptiMEM were used for the transfection. After a minimum of 4 hr of transfection at 37° C., the plasmid-transfected cells are trypsinized, counted, and suspended in freezing medium (95% FBS+5% DMSO). The reporter cells are frozen at 1×10^7/ml concentrations, aliquoted into 0.5 ml or 2.5 ml/tube and stored at −70° C.
The following day, test compounds are added under HTS setup by Plate Track into 384 well plates (white, TC treated, Falcon plate) such that the final concentration of the compounds in 20 μL/well cell will be 5 μg/ml (final concentration of DMSO=0.25% and final compound concentration=20 μM). Vials of frozen reporter cells are thawed by warming the vial in a 37° C. water bath for 60-120 seconds with some shaking until the cells formed a suspension. The thawed cells are transferred into a cold 50 ml (or larger) tube and mixed well by gentle pipetting. The appropriate amount of cold Phenol Red Free RPMI medium-1640 (GIBCO, Cat # 11835-030) with L-glutamine is added, both with ˜5% FBS (GIBCO-BRL, Cat. # 16000-044), so that 20 μl of the final cell suspension will contain ˜5,000 cells. The cell dilution is done such that the final concentration of FBS was ˜5%. Diluted cells (20 μl) are added into each well in a 384 well plate. The plate is incubated at 37° C. under 5% CO2 for ˜20 h. Bright-Glo substrate, 2.5 μl/well is added, and the Fire Fly Luciferase is measured using VLUX (60 second exposure) immediately after the substrate was added. Test compounds are dissolved in DMSO (100%) and added to specified wells. Raw luciferase signal data obtained as relative luminescence units (RLUs) for the test compounds are normalized to the signal of the mean of the sample reporter cell plate with DMSO.
Active compounds have TCF-luciferase ratios of 2.5 fold or greater over DMSO. All compounds show a signal increase of at least 10% compared to a signal with only DMSO added.
A=MAX FOLD Induction/DMSO CONTROL
B=TCF ACTIVITY/DMSO CONTROL Fold induction @ 2.0 uM C=TCF ACTIVITY/DMSO CONTROL Fold induction @ 20.0 uM

| SMILES | fold induction at 2 µM | fold induction at 20 µM |
| --- | --- | --- |
| Cn1c(=O)n(C2CCN(C(=O)N3CCOCC3)CC2)c2nccc(-c3ccc4ccccc4c3)c21 [1-methyl-3-[1-(morpholin-4-ylcarbonyl)piperidin-4-yl]-7-(2-naphthyl)-1,3-dihydro-2H-imidazo[4,5-b]pyridin-2-one] | 1.29 | 0.21 |
| c1ccc2cc(-c3cnc4c(c3)nc(-c3ccncc3)n4C3CCNCC3)ccc2c1 [6-(2-naphthyl)-3-piperidin-4-yl-2-pyridin-4-yl-3H-imidazo[4,5-b]pyridine] | 1.56 | 0.005 |
| Oc1cccc(-c2nc3c(-c4ccc5ccccc5c4)ccnc3n2C2CCNCC2)c1 [3-[7-(2-naphthyl)-3-piperidin-4-yl-3H-imidazo[4,5-b]pyridin-2-yl]phenol] | 1.58 | – |
| COc1cccc(-c2nc3cc(-c4ccc5ccccc5c4)cnc3n2C2CCNCC2)c1 [2-(3-methoxyphenyl)-6-(2-naphthyl)-3-piperidin-4-yl-3H-imidazo[4,5-b]pyridine] | 0.97 | – |
| Cc1ccc(CCn2c(C)nc3c(-c4ccc5ccccc5c4)ccnc32)cc1 [2-methyl-3-[2-(4-methylphenyl)ethyl]-7-(2-naphthyl)-3H-imidazo[4,5-b]pyridine] | 0.82 | 1 |
| c1ccc2cc(-c3ccnc4c3nc(-c3ccc5ccccc5c3)n4C3CCNCC3)ccc2c1 [2,7-di-2-naphthyl-3-piperidin-4-yl-3H-imidazo[4,5-b]pyridine] | 1.02 | – |
| c1ccc2cc(-c3ccc4ncn(C5CCNCC5)c4n3)ccc2c1 [5-(2-naphthyl)-3-piperidin-4-yl-3H-imidazo[4,5-b]pyridine] | 0.32 | – |
| Cc1cccc(-c2nc3cc(-c4ccc5ccccc5c4)cnc3n2C2CCNCC2)c1 [2-(3-methylphenyl)-6-(2-naphthyl)-3-piperidin-4-yl-3H-imidazo[4,5-b]pyridine] | 1.33 | – |
| CCc1nc2cc(-c3ccc4ccccc4c3)cnc2n1C1CCNCC1 [2-ethyl-6-(2-naphthyl)-3-piperidin-4-yl-3H-imidazo[4,5-b]pyridine] | 1.27 | 0.78 |
| Cn1cc(-c2nc3c(-c4ccc5ccccc5c4)ccnc3n2C2CCNCC2)c2ccccc21 [2-(1-methyl-1H-indol-3-yl)-7-(2-naphthyl)-3-piperidin-4-yl-3H-imidazo[4,5-b]pyridine] | 1.23 | – |
| Cc1nc2c(-c3ccc4ccccc4c3)ccnc2n1CC1CCNCC1 [2-methyl-7-(2-naphthyl)-3-(piperidin-4-ylmethyl)-3H-imidazo[4,5-b]pyridine] | 1.12 | 0.08 |
| Fc1ccccc1-c1nc2cc(-c3ccc4ccccc4c3)cnc2n1C1CCNCC1 [2-(2-fluorophenyl)-6-(2-naphthyl)-3-piperidin-4-yl-3H-imidazo[4,5-b]pyridine] | 1.29 | – |
| c1coc(-c2nc3cc(-c4ccc5ccccc5c4)cnc3n2C2CCNCC2)c1 [2-(2-furyl)-6-(2-naphthyl)-3-piperidin-4-yl-3H-imidazo[4,5-b]pyridine] | 1.27 | 0.01 |
| FC(F)(F)c1ccc(-c2nc3c(-c4ccc5ccccc5c4)ccnc3n2C2CCNCC2)cc1 [7-(2-naphthyl)-3-piperidin-4-yl-2-[4-(trifluoromethyl)phenyl]-3H-imidazo[4,5-b]pyridine] | 1.28 | – |
| CCn1cnc(-c2nc3c(-c4ccc5ccccc5c4)ccnc3n2C2CCNCC2)c1C [2-(1-ethyl-5-methyl-1H-imidazol-4-yl)-7-(2-naphthyl)-3-piperidin-4-yl-3H-imidazo[4,5-b]pyridine] | 1.88 | – |
| c1ccc2cc(-c3cnc4c(c3)nc(-c3ccnc5ccccc35)n4C3CCNCC3)ccc2c1 [4-[6-(2-naphthyl)-3-piperidin-4-yl-3H-imidazo[4,5-b]pyridin-2-yl]quinoline] | 1.81 | – |
| CC(C)NC(=O)N1CCC(n2c(=O)n(C)c3c(-c4ccc5ccccc5c4)ccnc32)CC1 [N-isopropyl-4-[1-methyl-7-(2-naphthyl)-2-oxo-1,2-dihydro-3H-imidazo[4,5-b]pyridin-3-yl]piperidine-1-carboxamide] | 1.07 | 0.26 |

| SMILES | fold induction at 2 µM | fold induction at 20 µM |
| --- | --- | --- |
| Cc1cn(-c2ccccc2)c(Cl)c1-c1nc2c(-c3ccc4ccccc4c3)ccnc2n1C1CCNCC1 [2-(2-chloro-4-methyl-1-phenyl-1H-pyrrol-3-yl)-7-(2-naphthyl)-3-piperidin-4-yl-3H-imidazo[4,5-b]pyridine] | 1.48 | – |
| c1ccc(-c2nc3cc(-c4ccc5ccccc5c4)cnc3n2C2CCNCC2)nc1 [6-(2-naphthyl)-3-piperidin-4-yl-2-pyridin-2-yl-3H-imidazo[4,5-b]pyridine] | 1.6 | 0.005 |
| c1ccc2cc(-c3ccnc4c3nc(C3CCCC3)n4C3CCNCC3)ccc2c1 [2-cyclopentyl-7-(2-naphthyl)-3-piperidin-4-yl-3H-imidazo[4,5-b]pyridine] | 1.46 | – |
| Cc1nc[nH]c1-c1nc2c(-c3ccc4ccccc4c3)ccnc2n1C1CCNCC1 [2-(4-methyl-1H-imidazol-5-yl)-7-(2-naphthyl)-3-piperidin-4-yl-3H-imidazo[4,5-b]pyridine] | 1.31 | – |
| CC(C)Cc1nc2c(-c3ccc4ccccc4c3)ccnc2n1C1CCNCC1 [2-isobutyl-7-(2-naphthyl)-3-piperidin-4-yl-3H-imidazo[4,5-b]pyridine] | 1.05 | – |
| Oc1ccc(-c2nc3c(-c4ccc5ccccc5c4)ccnc3n2C2CCNCC2)cc1 [4-[7-(2-naphthyl)-3-piperidin-4-yl-3H-imidazo[4,5-b]pyridin-2-yl]phenol] | 1.3 | – |
| FC(F)(F)c1cccc(-c2nc3c(-c4ccc5ccccc5c4)ccnc3n2C2CCNCC2)c1 [7-(2-naphthyl)-3-piperidin-4-yl-2-[3-(trifluoromethyl)phenyl]-3H-imidazo[4,5-b]pyridine] | 1.54 | – |
| Cc1cccc(-c2nc3c(-c4ccc5ccccc5c4)ccnc3n2C2CCNCC2)c1 [2-(3-methylphenyl)-7-(2-naphthyl)-3-piperidin-4-yl-3H-imidazo[4,5-b]pyridine] | 1.91 | – |
| Fc1ccc(-c2nc3cc(-c4ccc5ccccc5c4)cnc3n2C2CCNCC2)c(F)c1 [2-(2,4-difluorophenyl)-6-(2-naphthyl)-3-piperidin-4-yl-3H-imidazo[4,5-b]pyridine] | 1.22 | – |
| [O-][n+]1ccc(-c2nc3c(-c4ccc5ccccc5c4)ccnc3n2C2CCNCC2)cc1 [7-(2-naphthyl)-2-(1-oxidopyridin-4-yl)-3-piperidin-4-yl-3H-imidazo[4,5-b]pyridine] | 1.45 | 0.06 |
| CCCc1nc2c(-c3ccc4ccccc4c3)ccnc2n1C1CCNCC1 [7-(2-naphthyl)-3-piperidin-4-yl-2-propyl-3H-imidazo[4,5-b]pyridine] | 1.93 | – |
| CN(C)S(=O)(=O)N1CCC(n2cnc3c(-c4ccc5ccccc5c4)ccnc32)CC1 [N,N-dimethyl-4-[7-(2-naphthyl)-3H-imidazo[4,5-b]pyridin-3-yl]piperidine-1-sulfonamide] | 1.19 | 1.46 |
| c1ccc2cc(-c3cnc4c(c3)nc(-c3cccc5ccccc35)n4C3CCNCC3)ccc2c1 [2-(1-naphthyl)-6-(2-naphthyl)-3-piperidin-4-yl-3H-imidazo[4,5-b]pyridine] | 1.11 | – |
| COc1ccc2ccccc2c1-c1nc2c(-c3ccc4ccccc4c3)ccnc2n1C1CCNCC1 [2-(2-methoxy-1-naphthyl)-7-(2-naphthyl)-3-piperidin-4-yl-3H-imidazo[4,5-b]pyridine] | 1.17 | – |
| c1ccc(-c2nc3cc(-c4ccc5ccccc5c4)cnc3n2C2CCNCC2)cc1 [6-(2-naphthyl)-2-phenyl-3-piperidin-4-yl-3H-imidazo[4,5-b]pyridine] | 1.6 | – |
| c1ccc2cc(-c3ccnc4c3nc(-c3ccc5ccccc5n3)n4C3CCNCC3)ccc2c1 [2-[7-(2-naphthyl)-3-piperidin-4-yl-3H-imidazo[4,5-b]pyridin-2-yl]quinoline] | 0.01 | 1.01 |
| COc1ccccc1-c1nc2cc(-c3ccc4ccccc4c3)cnc2n1C1CCNCC1 [2-(2-methoxyphenyl)-6-(2-naphthyl)-3-piperidin-4-yl-3H-imidazo[4,5-b]pyridine] | 1.37 | 0.01 |

Source: patent publication US20090069319A1, “IMIDAZOPYRIDINE ANALOGS AND THEIR USE AS AGONISTS OF THE WNT-BETA-CATENIN CELLULAR MESSAGING SYSTEM” (Wyeth, priority 2007, published 2009)
